Data: patent US10189841B2, “Purinones as ubiquitin-specific protease 1 inhibitors” (Forma Therapeutics, Inc., priority 2015, dated 2019)

Biological target: USP1 (construct USP1 (I-785, GG670, 671AA)/UAF1 (I-677)-Flag) (Homo sapiens (Human), UniProt O94782, G670A/G671A)
Test: Ubiquitin-Rhodamine 110 assay for USP1 activity
Type: biochemical
Conditions: USP1/UAF1 25 pM, Ub-Rh110 25 nM, 30 min preincubation
How it was run: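 Ub-Rh110 (25 nM, ≪Km) cleavage read at ex 485/em 535 in Tris pH 8.0, CaCl2, GSH, Prionex, Triton X-100. The screen used 10 µM compound, 100 pM USP1/UAF1 and 45 min at RT.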

Chain of USP1 (construct USP1 (I-785, GG670, 671AA)/UAF1 (I-677)-Flag) (O94782 whole entry G670A/G671A): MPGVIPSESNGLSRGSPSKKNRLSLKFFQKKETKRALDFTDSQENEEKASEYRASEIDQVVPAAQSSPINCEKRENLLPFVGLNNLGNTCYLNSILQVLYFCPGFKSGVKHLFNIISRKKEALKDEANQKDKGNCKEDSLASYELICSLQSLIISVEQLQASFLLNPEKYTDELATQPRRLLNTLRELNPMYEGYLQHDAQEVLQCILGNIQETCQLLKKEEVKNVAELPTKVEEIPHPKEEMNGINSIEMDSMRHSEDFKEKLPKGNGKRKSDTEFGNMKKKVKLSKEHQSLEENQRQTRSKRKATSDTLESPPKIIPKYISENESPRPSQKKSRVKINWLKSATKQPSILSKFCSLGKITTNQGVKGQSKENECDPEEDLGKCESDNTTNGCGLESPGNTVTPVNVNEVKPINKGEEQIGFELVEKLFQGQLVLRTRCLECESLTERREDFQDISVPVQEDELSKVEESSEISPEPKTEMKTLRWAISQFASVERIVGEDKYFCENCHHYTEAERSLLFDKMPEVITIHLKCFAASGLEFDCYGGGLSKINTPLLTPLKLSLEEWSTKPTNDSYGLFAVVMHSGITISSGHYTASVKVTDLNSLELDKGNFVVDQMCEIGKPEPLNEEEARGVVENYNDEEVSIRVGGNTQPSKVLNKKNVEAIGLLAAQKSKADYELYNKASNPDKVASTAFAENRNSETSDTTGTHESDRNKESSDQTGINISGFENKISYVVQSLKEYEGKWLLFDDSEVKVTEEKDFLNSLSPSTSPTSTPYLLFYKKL
Chain of USP1 (construct USP1 (I-785, GG670, 671AA)/UAF1 (I-677)-Flag) (Q8TAF3 whole entry partner): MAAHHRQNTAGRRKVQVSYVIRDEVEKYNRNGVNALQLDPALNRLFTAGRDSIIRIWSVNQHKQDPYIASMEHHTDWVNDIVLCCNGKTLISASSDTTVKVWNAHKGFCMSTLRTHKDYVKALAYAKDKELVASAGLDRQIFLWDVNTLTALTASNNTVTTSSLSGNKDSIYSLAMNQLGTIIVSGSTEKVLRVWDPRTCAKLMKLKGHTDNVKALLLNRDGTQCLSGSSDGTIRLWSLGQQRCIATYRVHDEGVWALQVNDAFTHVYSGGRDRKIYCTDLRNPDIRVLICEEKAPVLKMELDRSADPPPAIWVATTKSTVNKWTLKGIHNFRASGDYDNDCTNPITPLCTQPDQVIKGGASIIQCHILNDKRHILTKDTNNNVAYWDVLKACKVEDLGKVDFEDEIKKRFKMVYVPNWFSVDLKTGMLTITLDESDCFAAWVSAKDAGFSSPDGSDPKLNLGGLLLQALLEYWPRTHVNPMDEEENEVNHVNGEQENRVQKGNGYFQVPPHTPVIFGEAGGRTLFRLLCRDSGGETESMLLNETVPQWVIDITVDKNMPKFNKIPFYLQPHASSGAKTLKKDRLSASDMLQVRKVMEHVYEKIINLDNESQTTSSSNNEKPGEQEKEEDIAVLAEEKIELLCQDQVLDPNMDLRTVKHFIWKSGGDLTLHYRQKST

Structure (SMILES)	IC50 [nM]
CC(C)c1ccccc1-c1ncc2c(n1)n(Cc1cccc(OCC3CC3)c1)c(=O)n2C [Compound I-239, 9-(3-(cyclopropylmethoxy)benzyl)-2-(2-isopropylphenyl)-7-methyl-7,9-dihydro-8H-purin-8-one]	> 2000
CC(C)c1ccccc1-c1ncc2c(n1)n(Cc1cccc(OCC3CCOC3)c1)c(=O)n2C (stereo not shown) [Compound I-240, 2-(2-isopropylphenyl)-7-methyl-9-(3-((tetrahydrofuran-3-yl)methoxy)benzyl)-7,9-dihydro-8H-purin-8-one]	200 to 2000
CC(C)c1ccccc1-c1ncc2c(n1)n(Cc1cccc(OCC3CCCN(C)C3)c1)c(=O)n2C (stereo not shown) [Compound I-241, 2-(2-isopropylphenyl)-7-methyl-9-(3-((1-methylpiperidin-3-yl)methoxy)benzyl)-7,9-dihydro-8H-purin-8-one]	200 to 2000
CC(C)c1ccccc1-c1ncc2c(n1)n(Cc1cccc(OCc3ccccn3)c1)c(=O)n2C [Compound I-242, 2-(2-isopropylphenyl)-7-methyl-9-(3-(pyridin-2-ylmethoxy)benzyl)-7,9-dihydro-8H-purin-8-one]	> 2000
CC(C)c1ccccc1-c1ncc2c(n1)n(Cc1cccc(OCc3cncn3C)c1)c(=O)n2C [Compound I-243, 2-(2-isopropylphenyl)-7-methyl-9-(3-((1-methyl-1H-imidazol-5-yl)methoxy)benzyl)-7,9-dihydro-8H-purin-8-one]	200 to 2000
CC(C)c1ccccc1-c1ncc2c(n1)n(Cc1cccc(OCCN(C)C)c1)c(=O)n2C [Compound I-244, 9-(3-(2-(dimethylamino)ethoxy)benzyl)-2-(2-isopropylphenyl)-7-methyl-7,9-dihydro-8H-purin-8-one]	> 2000
CC(C)c1ccccc1-c1ncc2c(n1)n(Cc1cccc(OCCCN(C)C)c1)c(=O)n2C [Compound I-245, 9-(3-(3-(dimethylamino)propoxy)benzyl)-2-(2-isopropylphenyl)-7-methyl-7,9-dihydro-8H-purin-8-one]	> 2000
CC(C)c1ccccc1-c1ncc2c(n1)n(Cc1cccc(OC3CCC3)c1)c(=O)n2C [Compound I-246, 9-(3-cyclobutoxybenzyl)-2-(2-isopropylphenyl)-7-methyl-7,9-dihydro-8H-purin-8-one]	> 2000
CC(C)c1ccccc1-c1ncc2[nH]c(=O)n(Cc3ccc(-c4cnccn4)cc3)c2n1 [Compound I-247, 2-(2-isopropylphenyl)-9-(4-(pyrazin-2-yl)benzyl)-7,9-dihydro-8H-purin-8-one]	50 to 200
CC(C)c1ccccc1-c1ncc2[nH]c(=O)n(Cc3ccc(-c4cccc(CCN(C)C)c4)cc3)c2n1 [Compound I-248, 9-((3′-(2-(dimethylamino)ethyl)-[1,1′-biphenyl]-4-yl)methyl)-2-(2-isopropylphenyl)-7,9-dihydro-8H-purin-8-one]	200 to 2000
CC(C)c1ccccc1-c1ncc2[nH]c(=O)n(Cc3ccc(-c4ccc(CCN(C)C)cc4)cc3)c2n1 [Compound I-249, 9-((4′-(2-(dimethylamino)ethyl)-[1,1′-biphenyl]-4-yl)methyl)-2-(2-isopropylphenyl)-7,9-dihydro-8H-purin-8-one]	200 to 2000
CC(C)c1ccccc1-c1ncc2[nH]c(=O)n(Cc3ccc(-c4cc(N5CCOCC5)ncn4)cc3)c2n1 [Compound I-250, 2-(2-isopropylphenyl)-9-(4-(6-morpholinopyrimidin-4-yl)benzyl)-7,9-dihydro-8H-purin-8-one]	50 to 200
CC(C)c1ccccc1-c1ncc2[nH]c(=O)n(Cc3ccc(-c4cncn4C)cc3)c2n1 [Compound I-251, 2-(2-isopropylphenyl)-9-(4-(1-methyl-1H-imidazol-5-yl)benzyl)-7,9-dihydro-8H-purin-8-one]	200 to 2000
Cc1c(-c2ccc(Cn3c(=O)[nH]c4cnc(-c5ccccc5C(C)C)nc43)cc2)cnn1C [Compound I-252, 9-(4-(1,5-dimethyl-1H-pyrazol-4-yl)benzyl)-2-(2-isopropylphenyl)-7,9-dihydro-8H-purin-8-one]	50 to 200
Cc1noc(C)c1-c1ccc(Cn2c(=O)[nH]c3cnc(-c4ccccc4C(C)C)nc32)cc1 [Compound I-253, 9-(4-(3,5-dimethylisoxazol-4-yl)benzyl)-2-(2-isopropylphenyl)-7,9-dihydro-8H-purin-8-one]	200 to 2000
CC(C)c1ccccc1-c1ncc2[nH]c(=O)n(Cc3ccc(-c4cnn(C)c4CC(=O)O)cc3)c2n1 [Compound I-254, 2-(4-(4-((2-(2-isopropylphenyl)-8-oxo-7,8-dihydro-9H-purin-9-yl)methyl)phenyl)-1-methyl-1H-pyrazol-5-yl)acetic acid]	> 2000
CC(C)c1ccccc1-c1ncc2[nH]c(=O)n(Cc3ccc(-c4ncccn4)cc3)c2n1 [Compound I-255, 2-(2-isopropylphenyl)-9-(4-(pyrimidin-2-yl)benzyl)-7,9-dihydro-8H-purin-8-one]	50 to 200

Structure (SMILES)	IC50 [nM]
CC(C)c1ccccc1-c1ncc2[nH]c(=O)n(Cc3ccc(-c4ccnn4C)cc3)c2n1 [Compound I-256, 2-(2-isopropylphenyl)-9-(4-(1-methyl-1H-pyrazol-5-yl)benzyl)-7,9-dihydro-8H-purin-8-one]	< 50
CC(C)c1ccccc1-c1ncc2c(n1)n(Cc1ccc(-c3nccn3C)cc1)c(=O)n2C [Compound I-257, 2-(2-isopropylphenyl)-7-methyl-9-(4-(1-methyl-1H-imidazol-2-yl)benzyl)-7,9-dihydro-8H-purin-8-one]	< 50
Cc1cn(C)c(-c2ccc(Cn3c(=O)n(C)c4cnc(-c5ccccc5C(C)C)nc43)cc2)n1 [Compound I-258, 9-(4-(1,4-dimethyl-1H-imidazol-2-yl)benzyl)-2-(2-isopropylphenyl)-7-methyl-7,9-dihydro-8H-purin-8-one]	< 50
CC(C)c1ccccc1-c1ncc2c(n1)n(Cc1ccc(-c3ccccc3OCCN(C)C)cc1)c(=O)n2C [Compound I-259, 9-((2′-(2-(dimethylamino)ethoxy)-[1,1′-biphenyl]-4-yl)methyl)-2-(2-isopropylphenyl)-7-methyl-7,9-dihydro-8H-purin-8-one]	< 50
CC(C)c1ccccc1-c1ncc2c(n1)n(Cc1ccc(-c3cccc(OCCN(C)C)c3)cc1)c(=O)n2C [Compound I-260, 9-((3′-(2-(dimethylamino)ethoxy)-[1,1′-biphenyl]-4-yl)methyl)-2-(2-isopropylphenyl)-7-methyl-7,9-dihydro-8H-purin-8-one]	50 to 200
CC(C)c1ccccc1-c1ncc2c(n1)n(Cc1ccc(-c3ccc(OCCN(C)C)cc3)cc1)c(=O)n2C [Compound I-261, 9-((4′-(2-(dimethylamino)ethoxy)-[1,1′-biphenyl]-4-yl)methyl)-2-(2-isopropylphenyl)-7-methyl-7,9-dihydro-8H-purin-8-one]	50 to 200
CC(C)c1ccccc1-c1ncc2c(n1)n(Cc1ccc(-c3ccc(CCN(C)C)cc3)cc1)c(=O)n2C [Compound I-262, 9-((4′-(2-(dimethylamino)ethyl)-[1,1′-biphenyl]-4-yl)methyl)-2-(2-isopropylphenyl)-7-methyl-7,9-dihydro-8H-purin-8-one]	50 to 200
CC(C)c1ccccc1-c1ncc2c(n1)n(Cc1ccc(-c3cc(N4CCOCC4)ncn3)cc1)c(=O)n2C [Compound I-263, 2-(2-isopropylphenyl)-7-methyl-9-(4-(6-morpholinopyrimidin-4-yl)benzyl)-7,9-dihydro-8H-purin-8-one]	200 to 2000
CC(C)c1ccccc1-c1ncc2c(n1)n(Cc1ccc(-c3cncn3C)cc1)c(=O)n2C [Compound I-264, 2-(2-isopropylphenyl)-7-methyl-9-(4-(1-methyl-1H-imidazol-5-yl)benzyl)-7,9-dihydro-8H-purin-8-one]	50 to 200
CC(C)c1ccccc1-c1ncc2c(n1)n(Cc1ccc(-c3cnn4c3COCC4)cc1)c(=O)n2C [Compound I-265, 9-(4-(6,7-dihydro-4H-pyrazolo[5,1-c][1,4]oxazin-3-yl)benzyl)-2-(2-isopropylphenyl)-7-methyl-7,9-dihydro-8H-purin-8-one]	200 to 2000
CC(C)c1ccccc1-c1ncc2c(n1)n(Cc1ccc(-c3cccc4ncnn34)cc1)c(=O)n2C [Compound I-266, 9-(4-([1,2,4]triazolo[1,5-a]pyridin-5-yl)benzyl)-2-(2-isopropylphenyl)-7-methyl-7,9-dihydro-8H-purin-8-one]	50 to 200
CC(C)c1ccccc1-c1ncc2c(n1)n(Cc1ccc(-c3cccc4cnoc34)cc1)c(=O)n2C [Compound I-267, 9-(4-(benzo[d]isoxazol-7-yl)benzyl)-2-(2-isopropylphenyl)-7-methyl-7,9-dihydro-8H-purin-8-one]	200 to 2000
CC(C)c1ccccc1-c1ncc2c(n1)n(Cc1ccc(-c3cccc4cn[nH]c34)cc1)c(=O)n2C [Compound I-268, 9-(4-(1H-indazol-7-yl)benzyl)-2-(2-isopropylphenyl)-7-methyl-7,9-dihydro-8H-purin-8-one]	50 to 200
CC(C)c1ccccc1-c1ncc2c(n1)n(Cc1ccc(-c3cccn4ccnc34)cc1)c(=O)n2C [Compound I-269, 9-(4-(imidazo[1,2-a]pyridin-8-yl)benzyl)-2-(2-isopropylphenyl)-7-methyl-7,9-dihydro-8H-purin-8-one]	< 50
CC(C)c1ccccc1-c1ncc2c(n1)n(Cc1ccc(-c3cccc4nccn34)cc1)c(=O)n2C [Compound I-270, 9-(4-(imidazo[1,2-a]pyridin-5-yl)benzyl)-2-(2-isopropylphenyl)-7-methyl-7,9-dihydro-8H-purin-8-one]	200 to 2000
CC(C)c1ccccc1-c1ncc2c(n1)n(Cc1ccc(-c3cn(C)cn3)cc1)c(=O)n2C [Compound I-271, 2-(2-isopropylphenyl)-7-methyl-9-(4-(1-methyl-1H-imidazol-4-yl)benzyl)-7,9-dihydro-8H-purin-8-one]	< 50
CC(C)c1ccccc1-c1ncc2c(n1)n(Cc1ccc(-c3ncn(C)n3)cc1)c(=O)n2C [Compound I-272, 2-(2-isopropylphenyl)-7-methyl-9-(4-(1-methyl-1H-1,2,4-triazol-3-yl)benzyl)-7,9-dihydro-8H-purin-8-one]	50 to 200
